From PMC3429506, “Screening for Novel LRRK2 Inhibitors Using a High-Throughput TR-FRET Cellular Assay for LRRK2 Ser935 Phosphorylation” (PLoS ONE, 2012)

Tests used:
[1] = target: LRRK2 G2019S (Homo sapiens, UniProt Q5S007, G2019S); test: In vitro biochemical LRRK2 TR-FRET activity assay; conditions: LRRK2 G2019S, ATP 134 µM (Km,app), LRRKtide substrate, three independent experiments; read-out: Biochemical LRRK2 assay IC50 +/- SD
[2] = target: T1, LRRK2 wild-type (Homo sapiens, UniProt Q5S007); test: TR-FRET cellular assay for LRRK2 Ser935 phosphorylation, HEK293T cells, BacMam LRRK2-GFP wild-type; set-up: This high-throughput assay utilizes cells expressing full-length human LRRK2 with a C-terminal GFP tag (LRRK2-GFP); host or cells: HEK293T cells transduced with BacMam; conditions: WT, +/- SD, three independent experiments, * = partial inhibition, read-out: IC50, TR-FRET cell-based assay for Ser935 phosphorylation of LRRK2
T1 sequence (Q5S007 whole entry): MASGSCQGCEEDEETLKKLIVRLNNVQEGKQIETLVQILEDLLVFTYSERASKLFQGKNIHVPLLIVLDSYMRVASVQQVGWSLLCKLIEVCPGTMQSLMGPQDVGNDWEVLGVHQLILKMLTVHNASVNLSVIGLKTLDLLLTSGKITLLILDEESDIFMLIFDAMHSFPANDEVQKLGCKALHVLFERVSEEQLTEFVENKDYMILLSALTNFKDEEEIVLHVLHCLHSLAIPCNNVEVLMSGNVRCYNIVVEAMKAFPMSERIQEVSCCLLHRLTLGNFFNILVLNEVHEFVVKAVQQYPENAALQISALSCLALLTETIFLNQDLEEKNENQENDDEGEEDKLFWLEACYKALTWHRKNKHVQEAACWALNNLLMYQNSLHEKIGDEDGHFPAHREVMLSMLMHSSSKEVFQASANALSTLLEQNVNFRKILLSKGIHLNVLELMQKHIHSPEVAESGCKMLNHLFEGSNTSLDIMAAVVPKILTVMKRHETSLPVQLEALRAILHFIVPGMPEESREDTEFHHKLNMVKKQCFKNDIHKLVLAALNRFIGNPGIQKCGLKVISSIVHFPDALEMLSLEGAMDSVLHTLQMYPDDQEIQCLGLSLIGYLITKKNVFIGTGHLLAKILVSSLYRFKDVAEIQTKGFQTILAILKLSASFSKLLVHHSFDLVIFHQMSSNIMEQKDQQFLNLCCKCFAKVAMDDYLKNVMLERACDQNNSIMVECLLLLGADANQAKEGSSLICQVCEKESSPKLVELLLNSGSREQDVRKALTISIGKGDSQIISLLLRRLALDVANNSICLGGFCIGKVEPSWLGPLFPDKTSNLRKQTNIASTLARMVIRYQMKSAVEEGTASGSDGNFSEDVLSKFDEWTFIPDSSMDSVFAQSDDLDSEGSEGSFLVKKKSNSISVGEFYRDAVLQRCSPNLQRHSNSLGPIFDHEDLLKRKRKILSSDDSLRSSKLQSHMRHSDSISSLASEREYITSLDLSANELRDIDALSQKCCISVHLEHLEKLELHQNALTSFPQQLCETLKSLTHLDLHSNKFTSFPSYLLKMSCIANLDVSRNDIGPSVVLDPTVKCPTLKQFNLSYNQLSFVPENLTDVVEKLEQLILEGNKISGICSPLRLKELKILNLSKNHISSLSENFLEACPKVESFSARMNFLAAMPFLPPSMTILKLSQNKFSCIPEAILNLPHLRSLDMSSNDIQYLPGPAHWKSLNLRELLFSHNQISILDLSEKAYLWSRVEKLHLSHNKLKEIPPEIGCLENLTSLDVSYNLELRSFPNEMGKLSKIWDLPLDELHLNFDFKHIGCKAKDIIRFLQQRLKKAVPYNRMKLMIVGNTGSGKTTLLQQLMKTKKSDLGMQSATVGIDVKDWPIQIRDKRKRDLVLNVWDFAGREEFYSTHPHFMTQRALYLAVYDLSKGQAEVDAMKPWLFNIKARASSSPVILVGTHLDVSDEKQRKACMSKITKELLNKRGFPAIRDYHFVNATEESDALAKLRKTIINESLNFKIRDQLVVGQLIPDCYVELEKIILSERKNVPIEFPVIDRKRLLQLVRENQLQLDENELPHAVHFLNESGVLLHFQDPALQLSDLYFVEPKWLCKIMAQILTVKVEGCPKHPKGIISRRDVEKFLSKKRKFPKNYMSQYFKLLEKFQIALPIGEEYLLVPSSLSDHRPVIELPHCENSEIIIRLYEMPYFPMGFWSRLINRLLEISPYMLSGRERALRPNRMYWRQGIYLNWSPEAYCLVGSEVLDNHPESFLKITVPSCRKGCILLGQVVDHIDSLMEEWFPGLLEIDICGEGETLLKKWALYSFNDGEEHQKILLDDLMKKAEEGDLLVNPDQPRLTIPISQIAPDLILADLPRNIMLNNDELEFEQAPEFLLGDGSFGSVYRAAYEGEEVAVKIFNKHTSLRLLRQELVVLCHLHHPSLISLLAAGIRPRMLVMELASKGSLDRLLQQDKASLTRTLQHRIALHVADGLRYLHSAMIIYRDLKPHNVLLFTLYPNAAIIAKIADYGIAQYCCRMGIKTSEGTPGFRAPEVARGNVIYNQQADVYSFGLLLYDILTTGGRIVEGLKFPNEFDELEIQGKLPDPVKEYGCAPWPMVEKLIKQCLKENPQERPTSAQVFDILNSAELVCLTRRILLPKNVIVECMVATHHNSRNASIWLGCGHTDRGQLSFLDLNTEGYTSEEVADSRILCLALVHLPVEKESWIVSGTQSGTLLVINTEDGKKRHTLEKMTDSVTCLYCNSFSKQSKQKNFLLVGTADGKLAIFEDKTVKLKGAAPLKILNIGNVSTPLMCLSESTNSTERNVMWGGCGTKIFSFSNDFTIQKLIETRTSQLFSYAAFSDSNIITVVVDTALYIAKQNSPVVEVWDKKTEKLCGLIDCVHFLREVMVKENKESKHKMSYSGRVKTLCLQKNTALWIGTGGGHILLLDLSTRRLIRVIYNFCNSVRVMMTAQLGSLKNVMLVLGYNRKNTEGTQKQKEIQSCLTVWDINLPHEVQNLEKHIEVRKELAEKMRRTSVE
Protocol: (§1) U-2 OS cells are maintained in growth medium (McCoy’s 5A supplemented with 10% dialyzed FBS (dFBS), 10 mM HEPES, 0.1 mM NEAA, 1 mM Sodium Pyruvate, and 100 U/mL Penicillin/100 µg/mL Streptomycin). HEK293T cells are maintained in DMEM with 10% dFBS, 10 mM HEPES, 0.1 mM NEAA and 100 U/mL Penicillin/100 µg/mL Streptomycin. SH-SY5Y cells are maintained in DMEM/F-12 medium supplemented with 10% dFBS and 100 U/mL Penicillin/100 µg/mL Streptomycin. […] GIBCO® human neural stem cells (hNSCs) were propagated as an adherent culture in StemPro® NSC SFM according to the manufacturer’s recommended protocol (Life Technologies). For BacMam transduction of U-2 OS and HEK293T, cells were harvested, mixed with various amounts of BacMam LRRK2-GFP reagent (v/v) and plated onto 6-well plates. […] Cells were assayed in 384-well format (∼20,000 cells/well) 48 hours post-transduction as above.
(§2) Transduced cells in the 384-well assay plate were incubated with indicated inhibitors (5X, 5 µL/well) for 60 to 90 minutes. During this time, 6 X lysis buffer (Life Technologies) was supplemented with 30 nM Tb-labeled anti-LRRK2 pSer935 antibody and both protease and phosphatase inhibitor cocktails (Sigma). The complete 6 X lysis buffer was added to each well (5 µL/well) and the plates were incubated at room temperature in the dark for 2 hours. […] A sigmoidal dose-response equation with varying slope was used to fit the data and generate IC50 values. Z′-factor values were calculated as: Z′-factor = 1 - [(3 × stdevno virus +3 × stdevmaxvirus)/(avgmaxvirus – avgno-virus)]. The IC50 values reported in Table 1 are the averaged numbers from three independent experiments.

[3] = target: T2, LRRK2 A2016T/G2019S (Homo sapiens, UniProt Q5S007, A2016T/G2019S); test: Immunoprecipitation/Western analysis of LRRK2 phosphorylation in T-REx HEK293 cells expressing inhibitor desensitizing mutant; type: cell-based; conditions: 20 µM, Figure 6 IRM
T2 construct: expressed in transfected cells
T2 sequence (Q5S007 whole entry A2016T/G2019S): as the sequence (Q5S007 whole entry) above, with A2016T, G2019S counted along it
Protocol: Immunoblot analysis: BacMam LRRK2-GFP transduced U-2 OS or SH-SY5Y cells (10^7 cells) were left untreated or treated with 3 µM LRRK2-IN-I for 90 min. For lysate preparation, the cells were washed once with ice-cold PBS and lysed by addition of ice-cold lysis buffer (20 mM Tris-HCl, pH 7.4, 1% NP-40, 5 mM EDTA, 5 mM NaF, 150 mM NaCl, and 1∶100 of protease and phosphatase inhibitor cocktails). The lysate was cleared of debris by centrifugation. Equal amount of total protein was loaded onto each lane for SDS-PAGE (3–8% Tris Acetate). The proteins were transferred onto nitrocellulose membrane using the iBLOT® dry blotting system (Life Technologies) according to manufacturer’s protocol. The membranes were blocked and incubated with a primary antibody against LRRK2 (Cell Signaling Technologies), followed by incubation with alkaline phosphatase-conjugated secondary antibody (WesternBreeze® chromogenic Kit, Life Technologies). The blot was developed by using the chromogenic BCIP/NBT substrate (WesternBreeze® chromogenic Kit, Life Technologies). […] Two days post induction, cells were treated for 90 minutes in the presence of 20 µM of compound or DMSO vehicle control. Cells were rapidly lysed in ice cold lysis buffer 50 mM Tris/HCl, pH 7.5, 1 mM EGTA, 1 mM EDTA, […] 1 mM sodium orthovanadate, 10 mM sodium beta-glycerolphosphate, 50 mM NaF, 5 mM sodium pyrophosphate, 0.27 M sucrose, 1 mM benzamidine and 2 mM phenylmethanesulphonylfluoride (PMSF) and one tablet each complete protease inhibitor and PhosSTOP phosphatase inhibitor (Roche) and was supplemented with 1% (v/v) Triton X-100. GFP-LRRK2 was immunoprecipitated with GFP nanotrap beads (ChromoTek). Immunecomplexes were washed twice with lysis buffer supplemented with 300 mM NaCl and once with Buffer A (50 mM Tris/HCl, pH 7.5, 50 mM NaCl, 0.1 mM EGTA and 0.1% (v/v) 2-mercaptoethanol, and 0.27 M sucrose).

[4] = tested on: LRRK2-GFP; test: Western blot analysis of LRRK2-GFP Ser935 phosphorylation in BacMam transduced SH-SY5Y cells; type: cell-based, human; conditions: LRRK2-IN-1 3 µM 90 min, wild-type, G2019S, R1441C, Figure 3A
Protocol: Immunoblot analysis: BacMam LRRK2-GFP transduced U-2 OS or SH-SY5Y cells (10^7 cells) were left untreated or treated with 3 µM LRRK2-IN-I for 90 min. For lysate preparation, the cells were washed once with ice-cold PBS and lysed by addition of ice-cold lysis buffer (20 mM Tris-HCl, pH 7.4, 1% NP-40, 5 mM EDTA, 5 mM NaF, 150 mM NaCl, and 1∶100 of protease and phosphatase inhibitor cocktails). The lysate was cleared of debris by centrifugation. Equal amount of total protein was loaded onto each lane for SDS-PAGE (3–8% Tris Acetate). The proteins were transferred onto nitrocellulose membrane using the iBLOT® dry blotting system (Life Technologies) according to manufacturer’s protocol. The membranes were blocked and incubated with a primary antibody against LRRK2 (Cell Signaling Technologies), followed by incubation with alkaline phosphatase-conjugated secondary antibody (WesternBreeze® chromogenic Kit, Life Technologies). The blot was developed by using the chromogenic BCIP/NBT substrate (WesternBreeze® chromogenic Kit, Life Technologies). […] Two days post induction, cells were treated for 90 minutes in the presence of 20 µM of compound or DMSO vehicle control. […]

[5] = target: T1, LRRK2 wild-type; test: TR-FRET cellular assay for LRRK2 Ser935 phosphorylation, U-2 OS cells, BacMam LRRK2-GFP wild-type; type: cell-based; set-up: This high-throughput assay utilizes cells expressing full-length human LRRK2 with a C-terminal GFP tag (LRRK2-GFP); host or cells: U-2 OS cells transduced with BacMam
Protocol: as §1, §2

Sequence of LRRK2 G2019S (Q5S007 whole entry G2019S): as the sequence (Q5S007 whole entry) above, with G2019S counted along it

Q: With `COc1cc(C(=O)N2CCC(N3CCN(C)CC3)CC2)ccc1Nc1ncc2c(n1)N(C)c1ccccc1C(=O)N2C` [LRRK2-IN-1] as the compound, how does the IC50 [1] read?
A: The IC50 was 10 nM.

Q: What about the IC50 [2] of the same compound?
A: Its IC50 is 120 nM.

Q: What about the “effect of desensitizing mutation A2016T/G2019S on compound-induced dephosphorylation (IP-Western)” value [3] of the same compound?
A: The value was “rescued phosphorylation”.

Q: What about the “Ser935 phosphorylation by Western blot” value [4] of the same compound?
A: The value was “significantly reduced”.

Q: And the IC50 ([5]; 20% BacMam wild-type, 90 min, Figure 2B, read-out: IC50, inhibition of TR-FRET signal (Ser935 phosphorylation))?
A: Its IC50 is 80 nM.

Q: What about the IC50 ([5]; WT, +/- SD, three independent experiments, * = partial inhibition, read-out: IC50, TR-FRET cell-based assay for Ser935 phosphorylation of LRRK2) of the same compound?
A: Its IC50 is 90 nM.
